From PubChem BioAssay AID1918937 (Molecular Pharmacology Branch, DTP, NCI, 2023)
Values joined by “and” are separate entries in the source; they are usually repeats but may differ in a detail not shown here. Equal values may be shown once.

Tested on: 521955-158-R2-J5-PDC complex spheroid viability
Test: Anticancer human tumor 521955-158-R2-J5-PDC patient-derived pancreatic carcinoma cell line growth inhibition
Details: compound 0.1 µM; active compounds read low
Text: Multicellular complex tumor spheroid response to LSD1 Inhibitor Iadademstat in combination with a variety of drugs and investigational agents in selected tumor cell lines
The current study was undertaken to assess response to LSD1 inhibitors in combination with standard-of-care drugs and investigational agents in solid tumor complex spheroid models as well as in the K-562 leukemia. Complex spheroids include a stromal component modeled by human endothelial cells (HUVEC) and fibroblasts modeled by human mesenchymal stem cells (MSCs). The concentration ranges selected for each drug and investigational agent were based upon clinically achievable concentrations if the clinical Cmax of the agent was known.
Compounds. The drugs and investigational agents used in this study are listed on Table 1. All of the agents used, including staurosporine (NSC755774) and gemcitabine (NSC613327), were obtained from the Developmental Therapeutics Program, NCI. FDA-approved anticancer drugs are available from the NCI at http://dtp.nci.nih.gov/branches/dscb/oncology_drugset_explanation.html. Drugs and investigational agents were >95% pure by proton nuclear magnetic resonance (NMR) and liquid chromatography/mass spectrometry (LC/MS). Stock solutions were prepared at 400x in DMSO, stored at -70 degrees C, and diluted in fresh medium prior to their use. The final concentration of DMSO in cell culture wells never exceeded 0.25% (v/v). The FDA-approved anticancer drug set is available from the Developmental Therapeutics Program at https://dtp.cancer.gov/organization/dscb/obtaining/available_plates.htm. All drugs and investigational agents were tested over a range starting from a high concentration at or near the clinical Cmax and decreasing in half-log increments. If the clinical Cmax for an agent had not been determined, the highest concentration tested was 10 microM.
Cell Lines. The patient-derived cancer cell (PDC) lines: 292921-168-R-J2-PDC, K24384-001-R-PDC, and 521955-158-R2-J5-PDC pancreatic carcinomas, 556581-035-R-J1 ovarian carcinoma, 324938-238-R-J1-PDC, 855422-203-R-J1-PDC and 883617-216-R-J1-PDC urothelial bladder carcinomas, 743489-274-T-PDC renal cell carcinoma, 138582-R-J1 Merkel cell tumor, K60290-347-R-J1 and K57222-313-R-J1-PDC glioblastomas, 653999-131-R-J2-PDC, LG0703-F948-PDC, and 349418-098-R-PDC non-small cell lung carcinomas, 885512-296-R-J2-PDC, 171881-019-R-J1-PDC breast carcinomas and 186277-243-T-J2-PDC and 233499-124-R-J2-PDC colon carcinomas were obtained from the NCI Patient-Derived Models Repository (PDMR, https://pdmr.cancer.gov). The established cell lines NCI/ADR-RES (RRID:CVCL_14520 and OVCAR-5 (RRID:CVCL_1628) ovarian carcinomas, 786-O (RRID:CVCL_1051) and A498 (RRID:CVCL_A498) renal cell carcinoma, NCI-H211 (ATCC, cat. CRL-5824; RRID:CVCL_1529), NCI-H196 (ATCC, cat. CRL-5823, RRID:CVCL_1509), SW 1271 (ATCC, cat. CRL-2177, RRID:CVCL_1716) and NCI-H1876 (ATCC, cat. CRL-5902, RRID:CVCL_1503) small cell lung carcinomas, MDA-MB-231 (RRID:CVCL_0062) and MDA-MB-468 (RRID:CVCL_0419)breast carcinomas (10-12). Pooled donor human umbilical vein endothelial cells (HUVEC, Lonza, cat. CC-2519) and human mesenchymal stem cells (hMSC, Lonza, cat. PT-2501) were purchased from Lonza (Walkersville, MD).
Cell Culture. All cells were maintained in an incubator at 37 degrees C and 5% CO2 with 95% humidity. The PDC lines were cultured according to standard operating procedures established by the NCI PDMR (https://pdmr.cancer.gov). Briefly all PDCs were thawed and cultured in Matrigel-coated flasks prepared with a working solution of 1X Ham's F-12 nutrient mix, without supplementation (Invitrogen, Waltham, MA, cat. 11765054), 100 U/mL penicillin-streptomycin (Invitrogen, cat. 15140122), and 2.5% Matrigel (Corning Inc., Corning, NY, cat. 354248) for the first three passages. […]
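Also: spheroids exposed to agents for seven days; percent of DMSO vehicle control luminescence viability.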

| SMILES | viability, T/C |
| --- | --- |
| COc1cc(Nc2ncc3c(n2)-c2ccc(Cl)cc2C(c2c(F)cccc2OC)=NC3)ccc1C(=O)O | 46.7% and 67.2% |
| COc1ccc([C@@H](O)c2cc(-c3ncnc4cc(N5CCOCC5)ccc34)c(F)cc2Cl)nn1 | 87% and 104% |
| Cn1ncnc1C1c2n[nH]c(=O)c3cc(F)cc(c23)NC1c1ccc(F)cc1 (configuration not stated) | 86.4% and 98% |
| NC1CC1c1ccc(-c2cccc(O)c2)cc1 (configuration not stated) | 78.3% |
| Nc1ncn(C2CC(O)C(CO)O2)c(=O)n1 (configuration not stated) | 81.8% and 84.8% |
| O=C(C=Cn1cnc(-c2cc(C(F)(F)F)cc(C(F)(F)F)c2)n1)NNc1cnccn1 | 31.9% and 73.8% |
| O=C(c1cc(Cc2n[nH]c(=O)c3ccccc23)ccc1F)N1CCN(C(=O)C2CC2)CC1 | 103% and 100% |

Same assay, conditions: compound 0.3 µM; active compounds read low

| SMILES | viability, T/C |
| --- | --- |
| CCN(c1cc(-c2ccc(CN3CCOCC3)cc2)cc(C(=O)NCc2c(C)cc(C)[nH]c2=O)c1C)C1CCOCC1 | 83.5% and 102% |
| CCc1c2c(nc3ccc(O)cc13)-c1cc3c(c(=O)n1C2)COC(=O)[C@]3(O)CC | 0.6% and 1.68% |
| COc1cc(C2c3cc4c(cc3C(OC3OC5COC(C)OC5C(O)C3O)C3COC(=O)C23)OCO4)cc(OC)c1O (configuration not stated) | 16.6% and 28.2% |
| NS(=O)(=O)OCC1CC(n2ccc3c(NC4CCc5ccccc54)ncnc32)CC1O (configuration not stated) | 16.3% and 20.5% |
| Nc1ccccc1NC(=O)c1ccc(CNC(=O)OCc2cccnc2)cc1 | 56.4% and 70.6% |
| Nc1ccn(C2OC(CO)C(O)C2(F)F)c(=O)n1 (configuration not stated) | 12% and 17.5% |
| Nc1ncn(C2CC(O)C(CO)S2)c(=O)n1 (configuration not stated) | 41.2% and 53.5% |
| O=C(C=Cc1cccc(S(=O)(=O)Nc2ccccc2)c1)NO | 48.3% and 70.4% |

Same assay, conditions: compound 0.316 µM; active compounds read low

| SMILES | viability, T/C |
| --- | --- |
| CC(C)c1c(-c2ccccc2)nc2c(C#N)c[nH]n2c1=O | 105% and 104% |
| CC1(C)CCC(CN2CCN(c3ccc(C(=O)NS(=O)(=O)c4ccc(NCC5CCOCC5)c([N+](=O)[O-])c4)c(Oc4cnc5[nH]ccc5c4)c3)CC2)=C(c2ccc(Cl)cc2)C1 | 107% and 115% |
| CC1COCCN1c1cc(-c2ccnn2C)c2ccnc(-c3ccn[nH]3)c2n1 (configuration not stated) | 21.6% and 24.3% |
| CC1COCCN1c1cc(C2(S(C)(=N)=O)CC2)nc(-c2ccnc3[nH]ccc23)n1 (configuration not stated) | 94.3% and 111% |
| COc1cc(Nc2ncc3c(n2)-c2ccc(Cl)cc2C(c2c(F)cccc2OC)=NC3)ccc1C(=O)O | 49% and 61.8% |
| COc1ccc([C@@H](O)c2cc(-c3ncnc4cc(N5CCOCC5)ccc34)c(F)cc2Cl)nn1 | 73.6% and 84.4% |
| NC1CCC(NC2CC2c2ccccc2)CC1 (configuration not stated) | 92.2% [middle of 4 runs] |
| Nc1ncn(C2CC(O)C(CO)O2)c(=O)n1 (configuration not stated) | 79% and 74.5% |
| O=C(C=Cn1cnc(-c2cc(C(F)(F)F)cc(C(F)(F)F)c2)n1)NNc1cnccn1 | 15.7% and 36.3% |
| O=C(c1cc(Cc2n[nH]c(=O)c3ccccc23)ccc1F)N1CCN(C(=O)C2CC2)CC1 | 100% and 104% |

Same assay, conditions: compound 0.949 µM; active compounds read low

| SMILES | viability, T/C |
| --- | --- |
| CCN(c1cc(-c2ccc(CN3CCOCC3)cc2)cc(C(=O)NCc2c(C)cc(C)[nH]c2=O)c1C)C1CCOCC1 | 73.1% and 87.9% |
| COc1cc(C2c3cc4c(cc3C(OC3OC5COC(C)OC5C(O)C3O)C3COC(=O)C23)OCO4)cc(OC)c1O (configuration not stated) | 9.58% and 15.6% |
| NS(=O)(=O)OCC1CC(n2ccc3c(NC4CCc5ccccc54)ncnc32)CC1O (configuration not stated) | 14.1% and 15.6% |
| Nc1ccccc1NC(=O)c1ccc(CNC(=O)OCc2cccnc2)cc1 | 11.1% and 25.3% |
| O=C(C=Cc1cccc(S(=O)(=O)Nc2ccccc2)c1)NO | 10.4% and 38.4% |

Same assay, conditions: compound 1 µM; active compounds read low

| SMILES | viability, T/C |
| --- | --- |
| CC(C)c1c(-c2ccccc2)nc2c(C#N)c[nH]n2c1=O | 101% and 86.4% |
| CC1(C)CCC(CN2CCN(c3ccc(C(=O)NS(=O)(=O)c4ccc(NCC5CCOCC5)c([N+](=O)[O-])c4)c(Oc4cnc5[nH]ccc5c4)c3)CC2)=C(c2ccc(Cl)cc2)C1 | 103% and 111% |
| CC1COCCN1c1cc(-c2ccnn2C)c2ccnc(-c3ccn[nH]3)c2n1 (configuration not stated) | 12.5% and 17.1% |
| CC1COCCN1c1cc(C2(S(C)(=N)=O)CC2)nc(-c2ccnc3[nH]ccc23)n1 (configuration not stated) | 13.1% and 18.6% |
| COc1cc(Nc2ncc3c(n2)-c2ccc(Cl)cc2C(c2c(F)cccc2OC)=NC3)ccc1C(=O)O | 42% and 61.7% |
| COc1ccc([C@@H](O)c2cc(-c3ncnc4cc(N5CCOCC5)ccc34)c(F)cc2Cl)nn1 | 57.1% and 63.2% |
| Nc1ncn(C2CC(O)C(CO)O2)c(=O)n1 (configuration not stated) | 64.4% and 52.7% |
